The record followed here is PubChem BioAssay (NCI).

SMILES strings stand for the structures. “And” between values parts separate entries of the source, which are not always exact repeats. Identical values can stand only once.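 96-well plates; 48 h exposure; 5 concentrations. Endpoints by linear interpolation between flanking doses. Not reached: highest tested concentration assigned. GI50 marks 50% less growth. TGI: concentration producing complete growth inhibition.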

Some test systems named below: LOX IMVI melanoma; HCC-2998 colon; MALME-3M melanoma; 786-0 renal; CAKI-1 renal; MCF7 breast; HOP-92 NSCLC; SF-539 CNS; UACC-62 melanoma; MDA-MB-231 breast.
What all share (assay): growth of human tumour cells (NCI), 48 h

On to `COc1ccc(/C=C2\CCCC3=C2N=C2SC=NN2C3c2ccc(OC)c(OC)c2)cc1OC` (stereo unspecified), for which the GI50 was 16.6 µM with LOX IMVI melanoma; > 100 µM in the assay on HCC-2998 colon; 22.6 µM in the assay on MALME-3M melanoma; 25.3 µM in the assay on 786-0 renal; 7.43 µM in the assay on CAKI-1 renal; 2.42 µM in the assay with MCF7 breast. Besides, the GI50 is 11.6 µM in the assay on HOP-92 NSCLC, 14.6 µM in the assay with SF-539 CNS, 4.21 µM with UACC-62 melanoma and 26 µM with MDA-MB-231 breast. In addition, the TGI in the assay with LOX IMVI melanoma was 75.1 µM; in the assay with HCC-2998 colon, > 100 µM; in the assay on MALME-3M melanoma it was 78.7 µM; in the assay with 786-0 renal, > 100 µM; in the assay with CAKI-1 renal it was > 100 µM; in the assay with MCF7 breast, > 100 µM. The TGI in the assay on HOP-92 NSCLC is 58.9 µM; in the assay with SF-539 CNS it was 68.5 µM; in the assay on UACC-62 melanoma it was 80 µM; in the assay on MDA-MB-231 breast, > 100 µM.

Take `Nc1nn(C(=O)Nc2ccc(Cc3ccccc3)cc2)c2ccccc12`: the GI50 was 0.477 µM with LOX IMVI melanoma; 4.27 µM in the assay on HCC-2998 colon; 19.2 µM with MALME-3M melanoma; 3.76 µM with 786-0 renal; 21.1 µM with CAKI-1 renal; 0.555 µM with MCF7 breast. For the same compound, the GI50 was 14.2 µM in the assay with HOP-92 NSCLC, 0.495 µM in the assay on SF-539 CNS, 0.353 µM in the assay on UACC-62 melanoma and 0.847 µM in the assay on MDA-MB-231 breast. For the same compound, the TGI in the assay on LOX IMVI melanoma was 16.1 µM; in the assay with HCC-2998 colon, 35.9 µM; in the assay with MALME-3M melanoma, 64.1 µM; in the assay with 786-0 renal it was 26.2 µM; in the assay with CAKI-1 renal, 58 µM; with MCF7 breast, 8.82 µM. Further, the TGI in the assay on HOP-92 NSCLC was 42.6 µM; with SF-539 CNS, 5.36 µM; in the assay with UACC-62 melanoma, > 100 µM; in the assay on MDA-MB-231 breast it was 43.9 µM.

In the case of `COc1cc2c3c(n(CCCN4CCOCC4)c(=O)c2cc1OC)-c1cc2c(cc1C3=O)OCO2`, the TGI is > 35 µM in the assay on LOX IMVI melanoma; 65.4 µM with HCC-2998 colon; 84.5 µM in the assay on MALME-3M melanoma; 20.3 µM in the assay on 786-0 renal; 14.6 µM in the assay on CAKI-1 renal; > 36.3 µM with MCF7 breast. The TGI in the assay with HOP-92 NSCLC was > 91.5 µM; with SF-539 CNS, 2.37 µM; in the assay on UACC-62 melanoma, 2.29 µM. Moreover, the GI50 with HCC-2998 colon was 10.7 µM; in the assay on MALME-3M melanoma it was 6.6 µM; in the assay on 786-0 renal, 0.689 µM; in the assay with CAKI-1 renal, 0.52 µM; in the assay on MCF7 breast it was 0.368 µM; with HOP-92 NSCLC, 3.21 µM. Moreover, the GI50 in the assay with SF-539 CNS is 0.165 µM; with UACC-62 melanoma, 0.193 µM; in the assay on MDA-MB-231 breast it was 3.92 µM.

Regarding `COC(=O)C12OCC34C(CC5C(C)=CC(=O)C(O)C5(C)C3C(O)C1O)OC(=O)C(OC(=O)CC(C)C)C24` (stereo unspecified), the GI50 was < 0.0336 µM and 0.05 µM in the assay on LOX IMVI melanoma; < 0.0281 µM in the assay with HCC-2998 colon; < 0.0356 µM in the assay with MALME-3M melanoma; 0.0223 µM in the assay on 786-0 renal; 0.12 µM and 0.0876 µM in the assay with CAKI-1 renal; 0.000602 µM in the assay with MCF7 breast. Also, the GI50 with HOP-92 NSCLC is 0.0442 µM and 0.05 µM; with SF-539 CNS it was < 0.034 µM; in the assay with UACC-62 melanoma, 0.0478 µM and 0.05 µM. In addition, the TGI with 786-0 renal was 0.107 µM and 0.207 µM; with MCF7 breast, 0.00221 µM; with HOP-92 NSCLC, 0.0174 µM and 0.119 µM and 0.0651 µM; in the assay with MDA-MB-231 breast it was 0.0247 µM.

Regarding `COC1(C)Cc2c(c(C)c(O)c3c2C(=O)C=C(Cl)C3=O)O1` (stereo unspecified), the TGI in the assay with LOX IMVI melanoma is > 100 µM; in the assay on HCC-2998 colon, > 100 µM; in the assay on MALME-3M melanoma it was 19.7 µM; with 786-0 renal it was > 100 µM; in the assay on CAKI-1 renal, 42 µM; with MCF7 breast, > 100 µM. The TGI in the assay on HOP-92 NSCLC is 36.4 µM; in the assay with SF-539 CNS, > 100 µM; with UACC-62 melanoma, > 87.5 µM; in the assay on MDA-MB-231 breast, 39.9 µM.

For `CCCNNC(=O)c1ccc(CNC(=O)/C=C/c2ccccc2)cc1`, the GI50 in the assay with LOX IMVI melanoma is 0.139 µM; in the assay with HCC-2998 colon it was 0.186 µM; in the assay on MALME-3M melanoma, 0.0475 µM; in the assay on 786-0 renal, 0.314 µM; with CAKI-1 renal, 0.174 µM; with MCF7 breast it was 0.216 µM. The GI50 is 0.0821 µM in the assay with HOP-92 NSCLC, 0.191 µM in the assay on SF-539 CNS, 0.0825 µM in the assay with UACC-62 melanoma and 0.348 µM in the assay with MDA-MB-231 breast. Besides, the TGI was 0.306 µM with LOX IMVI melanoma; 0.653 µM in the assay on HCC-2998 colon; > 100 µM in the assay on MALME-3M melanoma; > 100 µM in the assay on 786-0 renal; 0.733 µM with CAKI-1 renal; > 100 µM in the assay on MCF7 breast. Further, the TGI in the assay on HOP-92 NSCLC is 0.609 µM; in the assay with SF-539 CNS it was > 100 µM; in the assay with UACC-62 melanoma, 0.249 µM; with MDA-MB-231 breast, > 100 µM.

Regarding `O=C1/C(=c2\c3ccccc3n3c(=O)c4ccccc4nc23)Nc2ccccc21`, the TGI with LOX IMVI melanoma, with HCC-2998 colon, with MALME-3M melanoma, in the assay with 786-0 renal, with CAKI-1 renal and in the assay on MCF7 breast was > 100 µM in each case. Moreover, the TGI with HOP-92 NSCLC, in the assay on SF-539 CNS, with UACC-62 melanoma and in the assay on MDA-MB-231 breast was > 100 µM each time.

Consider `O=C1C=CC(=O)N1CCCCCCCCCCN1C(=O)C=CC1=O`, for which the GI50 is 11.3 µM in the assay on LOX IMVI melanoma; 26 µM in the assay on HCC-2998 colon; 2.05 µM in the assay with MALME-3M melanoma; 16.2 µM with 786-0 renal; 9.19 µM with CAKI-1 renal; 5.62 µM in the assay with MCF7 breast. The GI50 with HOP-92 NSCLC is 20.8 µM; in the assay on SF-539 CNS, 16.4 µM; with UACC-62 melanoma, 14.8 µM; in the assay on MDA-MB-231 breast, 15.7 µM. For the same compound, the TGI with LOX IMVI melanoma turned out to be 24.4 µM; in the assay with HCC-2998 colon it was 71.2 µM; in the assay on MALME-3M melanoma it was 6.49 µM; in the assay with 786-0 renal, 30.4 µM; in the assay on CAKI-1 renal, 25.2 µM; in the assay on MCF7 breast it was 24.2 µM. Further, the TGI in the assay with HOP-92 NSCLC amounted to 37 µM; in the assay on SF-539 CNS, 30.6 µM; in the assay with UACC-62 melanoma, 28.2 µM; with MDA-MB-231 breast, 29.5 µM.
